Measured values as given in ChEMBL document CHEMBL1135808, “A new type of mixed anhydride and its applications to the synthesis of 7-substituted 8-chloro-5,5-dioxoimidazo[1,2-b][1,4,2]benzodithiazines with in vitro antitumor activity” (2002).

Columns and labels:
Format in all cases: functional
BT-549 [1] = assay: In vitro growth inhibition against breast cancer BT 549 cell line was reported.; details: Homo sapiens
Hs-578T [2] = assay: In vitro growth inhibition against breast cancer HS 578T cell line was reported.; details: Homo sapiens
NCI/ADR-RES = assay: In vitro total growth inhibition against breast cancer NCI/ADR-RES cell lines was reported.; details: Homo sapiens, read-out: Log TGI (converted)
HCC 2998 = assay: In vitro total growth inhibition against colon cancer HCC2998 cell lines was reported.; details: Homo sapiens, read-out: Log TGI (converted)
HCT-116 [3] = assay: Log of molar concentration leading to 50% cell death against colon cancer HCT116 cell line was reported; details: Homo sapiens, read-out: Log LC50 (the source's name) (converted)
HCT-116 [4] = assay: In vitro total growth inhibition against colon cancer HCT116 cell lines was reported.; details: Homo sapiens, read-out: Log TGI (converted)
SF-539 = assay: In vitro growth inhibition against CNS cancer SF-539 cell line was reported.; details: Homo sapiens
SNB-19 [5] = assay: In vitro total growth inhibition against CNS cancer SNB-19 cell lines was reported.; details: Homo sapiens, read-out: Log TGI (converted)
SNB-75 [6] = assay: In vitro total growth inhibition against CNS cancer SNB-75 cell lines was reported.; details: Homo sapiens, read-out: Log TGI (converted)
K562 [7] = assay: In vitro growth inhibition against leukemia K-562 cell line was reported.; details: Homo sapiens
K562 [8] = assay: In vitro total growth inhibition against leukemia K-562 cell lines was reported.; details: Homo sapiens, read-out: Log TGI (converted)
CCRF-CEM [9] = assay: In vitro total growth inhibition against leukemia CCRF cell lines was reported.; details: Homo sapiens, read-out: Log TGI (converted)
HL-60 = assay: In vitro growth inhibition against leukemia HL-60(TB) cell line was reported.; details: Homo sapiens
MOLT-4 [10] = assay: In vitro total growth inhibition against leukemia MOLT-4 cell lines was reported.; details: Homo sapiens, read-out: Log TGI (converted)
EKVX = assay: Log of molar concentration leading to 50% cell death against non-small-cell lung cancer EKVX cell line was reported; details: Homo sapiens, read-out: Log LC50 (the source's name) (converted)
HOP-62 = assay: In vitro total growth inhibition against non-small-cell lung cancer HOP-62 cell lines was reported.; details: Homo sapiens, read-out: Log TGI (converted)
NCI-H46 = assay: Log of molar concentration leading to 50% cell death against non-small-cell lung cancer […] cell line was reported; details: Homo sapiens, read-out: Log LC50 (the source's name) (converted)
OVCAR-4 = assay: In vitro total growth inhibition against ovarian cancer OVCAR-4 cell lines was reported.; details: Homo sapiens, read-out: Log TGI (converted)
OVCAR-5 [11] = assay: In vitro growth inhibition against ovarian cancer OVCAR-5 cell line was reported.; details: Homo sapiens
SK-OV-3 = assay: In vitro total growth inhibition against ovarian cancer SK-OV-3 cell lines was reported.; details: Homo sapiens, read-out: Log TGI (converted)
DU-145 = assay: In vitro total growth inhibition against prostate cancer […] cell lines was reported.; details: Homo sapiens, read-out: Log TGI (converted)
786-0 = assay: In vitro growth inhibition against renal cancer […] cell line was reported.; details: Homo sapiens
SN12C [12] = assay: In vitro growth inhibition against renal cancer SN12C cell line was reported.; details: Homo sapiens
SR = assay: Log of molar concentration leading to 50% cell death against leukemia SR cell line was reported; details: Homo sapiens, read-out: Log LC50 (the source's name) (converted)
OVCAR-5 [13] = assay: Log of molar concentration leading to 50% cell death against ovarian cancer […] cell line was reported; details: Homo sapiens, read-out: Log LC50 (the source's name) (converted)
[14] = (§1) Log of molar concentration leading to 50% cell death against breast cancer MDA-MB-435 cell line was reported; details: Homo sapiens, read-out: Log LC50 (the source's name) (converted)
T47D = assay: Log of molar concentration leading to 50% cell death against breast cancer […] cell line was reported; details: Homo sapiens, read-out: Log LC50 (the source's name) (converted)
LOX IMVI = assay: Log of molar concentration leading to 50% cell death against melanoma LOX IMVI cell line was reported; details: Homo sapiens, read-out: Log LC50 (the source's name) (converted)
Malme-3M [15] = assay: Log of molar concentration leading to 50% cell death against melanoma MALME 3M cell line was reported; details: Homo sapiens, read-out: Log LC50 (the source's name) (converted)
Malme-3M [16] = assay: In vitro total growth inhibition against melanoma MALME 3M cell lines was reported.; details: Homo sapiens, read-out: Log TGI (converted)
SK-MEL-2 = assay: In vitro total growth inhibition against melanoma SK-MEL-2 cell lines was reported.; details: Homo sapiens, read-out: Log TGI (converted)
SK-MEL-5 = assay: Log of molar concentration leading to 50% cell death against melanoma SK-MEL-5 cell line was reported; details: Homo sapiens, read-out: Log LC50 (the source's name) (converted)
HOP-92 = assay: In vitro growth inhibition against non-small-cell lung cancer HOP-92 cell line was reported.; details: Homo sapiens
A549 = assay: Log of molar concentration leading to 50% cell death against non-small-cell lung cancer A 549/ATCC cell line was reported; details: Homo sapiens, read-out: Log LC50 (the source's name) (converted)
UACC-62 = assay: Log of molar concentration leading to 50% cell death against melanoma UACC-62 cell line was reported; details: Homo sapiens, read-out: Log LC50 (the source's name) (converted)
IGROV-1 = assay: In vitro growth inhibition against ovarian cancer IGROV1 cell line was reported.; details: Homo sapiens
PC-3 = assay: In vitro growth inhibition against prostate cancer PC-3 cell line was reported.; details: Homo sapiens
Hs-578T [17] = assay: In vitro total growth inhibition against breast cancer HS 578T cell lines was reported.; details: Homo sapiens, read-out: Log TGI (converted)
SNB-19 [18] = assay: Log of molar concentration leading to 50% cell death against CNS cancer SNB-19 cell line was reported; details: Homo sapiens, read-out: Log LC50 (the source's name) (converted)
SNB-75 [19] = assay: Log of molar concentration leading to 50% cell death against CNS cancer SNB-75 cell line was reported; details: Homo sapiens, read-out: Log LC50 (the source's name) (converted)
SF-268 = assay: In vitro total growth inhibition against CNS cancer SF-268 cell lines was reported.; details: Homo sapiens, read-out: Log TGI (converted)
NCI-H226 = assay: Log of molar concentration leading to 50% cell death against non-small-cell lung cancer NCI-H226 cell line was reported; details: Homo sapiens, read-out: Log LC50 (the source's name) (converted)
NCI-H23 = assay: Log of molar concentration leading to 50% cell death against non-small-cell lung cancer NCI-H23 cell line was reported; details: Homo sapiens, read-out: Log LC50 (the source's name) (converted)
SN12C [20] = assay: In vitro total growth inhibition against renal cancer SN12C cell lines was reported.; details: Homo sapiens, read-out: Log TGI (converted)
MOLT-4 [21] = assay: Log of molar concentration leading to 50% cell death against leukemia MOLT-4 cell line was reported; details: Homo sapiens, read-out: Log LC50 (the source's name) (converted)
CCRF-CEM [22] = assay: Log of molar concentration leading to 50% cell death against leukemia CCRF-CEM cell line was reported; details: Homo sapiens, read-out: Log LC50 (the source's name) (converted)
K562 [23] = assay: Log of molar concentration leading to 50% cell death against leukemia K-562 cell line was reported; details: Homo sapiens, read-out: Log LC50 (the source's name) (converted)
HCT-15 = assay: Log of molar concentration leading to 50% cell death against colon cancer HCT-15 cell line was reported; details: Homo sapiens, read-out: Log LC50 (the source's name) (converted)
BT-549 [24] = assay: Log of molar concentration leading to 50% cell death against breast cancer BT 549 cell line was reported; details: Homo sapiens, read-out: Log LC50 (the source's name) (converted)
MDA-MB-435 = assay: as §1; details: Homo sapiens, read-out: Log LC50 (the source's name) (converted)
MDA-N = assay: Log of molar concentration leading to 50% cell death against breast cancer MDA-Ncell line was reported; details: Homo sapiens, read-out: Log LC50 (the source's name) (converted)
A498 = assay: Log of molar concentration leading to 50% cell death against renal cancer A498 cell line was reported; details: Homo sapiens, read-out: Log LC50 (the source's name) (converted)
SN12C [25] = assay: Log of molar concentration leading to 50% cell death against renal cancer SN12C cell line was reported; details: Homo sapiens, read-out: Log LC50 (the source's name) (converted)
UO-31 = assay: Log of molar concentration leading to 50% cell death against renal cancer UO-31 cell line was reported; details: Homo sapiens, read-out: Log LC50 (the source's name) (converted)

Cc1ccc2cccc(NC(=O)c3cc4c(cc3Cl)Sc3nccn3S4(=O)=O)c2n1
GI50 (BT-549 [1]): 11.5 µM | GI50 (Hs-578T [2]): 13.5 µM | TGI (NCI/ADR-RES): 41.7 µM | TGI (HCC 2998): 4.68 µM | CC50 (HCT-116 [3]): 40.7 µM | TGI (HCT-116 [4]): 17 µM | GI50 (SF-539): 1.82 µM | TGI (SNB-19 [5]): 33.9 µM | TGI (SNB-75 [6]): 30.9 µM | GI50 (K562 [7]): 4.07 µM | TGI (K562 [8]): 38 µM | TGI (CCRF-CEM [9]): 17 µM | GI50 (HL-60): 0.01 µM | TGI (MOLT-4 [10]): 20 µM | CC50 (EKVX): 77.6 µM | TGI (HOP-62): 16.2 µM | CC50 (NCI-H46): 26.9 µM | TGI (OVCAR-4): 24.5 µM | GI50 (OVCAR-5 [11]): 16.2 µM | TGI (SK-OV-3): 97.7 µM | TGI (DU-145): 17.8 µM | GI50 (786-0): 16.2 µM | GI50 (SN12C [12]): 12.3 µM | CC50 (SR): 27.5 µM | CC50 (OVCAR-5 [13]): 91.2 µM | CC50 [14]: 55 µM | CC50 (T47D): 38 µM | CC50 (LOX IMVI): 45.7 µM | CC50 (Malme-3M [15]): 64.6 µM | TGI (Malme-3M [16]): 33.1 µM | TGI (SK-MEL-2): 32.4 µM | CC50 (SK-MEL-5): 50.1 µM | GI50 (HOP-92): 14.5 µM | CC50 (A549): 63.1 µM | CC50 (UACC-62): 67.6 µM | GI50 (IGROV-1): 3.24 µM | GI50 (PC-3): 2.69 µM

O=C(Nc1nccs1)c1cc2c(cc1Cl)Sc1nccn1S2(=O)=O
GI50 (BT-549 [1]): 18.2 µM | GI50 (Hs-578T [2]): 28.2 µM | TGI (Hs-578T [17]): 91.2 µM | TGI (NCI/ADR-RES): 44.7 µM | TGI (HCC 2998): 29.5 µM | CC50 (HCT-116 [3]): 55 µM | TGI (HCT-116 [4]): 29.5 µM | GI50 (SF-539): 19.5 µM | CC50 (SNB-19 [18]): 72.4 µM | TGI (SNB-19 [5]): 37.2 µM | CC50 (SNB-75 [19]): 66.1 µM | TGI (SNB-75 [6]): 35.5 µM | TGI (SF-268): 46.8 µM | GI50 (K562 [7]): 15.8 µM | TGI (K562 [8]): 46.8 µM | TGI (CCRF-CEM [9]): 24.5 µM | GI50 (HL-60): 13.5 µM | TGI (MOLT-4 [10]): 41.7 µM | CC50 (EKVX): 97.7 µM | TGI (HOP-62): 30.2 µM | CC50 (NCI-H46): 55 µM | CC50 (NCI-H226): 64.6 µM | CC50 (NCI-H23): 67.6 µM | TGI (OVCAR-4): 38.9 µM | GI50 (OVCAR-5 [11]): 21.9 µM | TGI (SK-OV-3): 64.6 µM | TGI (DU-145): 30.2 µM | GI50 (786-0): 15.8 µM | GI50 (SN12C [12]): 17 µM | TGI (SN12C [20]): 32.4 µM | CC50 (SR): 46.8 µM | CC50 (MOLT-4 [21]): 93.3 µM | CC50 (CCRF-CEM [22]): 95.5 µM | CC50 (K562 [23]): 87.1 µM | CC50 (HCT-15): 93.3 µM | CC50 (OVCAR-5 [13]): 97.7 µM | CC50 (BT-549 [24]): 69.2 µM | CC50 (MDA-MB-435): 57.5 µM | CC50 (MDA-N): 61.7 µM | CC50 (LOX IMVI): 60.3 µM | CC50 (Malme-3M [15]): 69.2 µM | TGI (Malme-3M [16]): 37.2 µM | TGI (SK-MEL-2): 33.1 µM | CC50 (SK-MEL-5): 55 µM | GI50 (HOP-92): 15.1 µM | CC50 (A498): 63.1 µM | CC50 (SN12C [25]): 63.1 µM | CC50 (UO-31): 46.8 µM | CC50 (UACC-62): 52.5 µM | GI50 (IGROV-1): 11.7 µM | GI50 (PC-3): 17 µM
